Results reported in patent US5258406A, “Sulfonimidamides” (priority 1992, dated 1993).
Read-outs that look alike come from different tables or passages of the source.

Columns and labels:
Type in all cases: in vivo
VRC5 = settings: oral
Experimental: (§1) The compounds were tested in C3H mice bearing a 6C3HED lymphosarcoma, also known as the Gardner lymphosarcoma (GLS), and in a variety of human tumor xenografts in CD1 nu/nu mice, including CX-1, LX-1, HXGC3, and VRC5. The 6C3HED lymphosarcoma was obtained from the Division of Cancer Treatment, National […] Institute, Tumor Bank, maintained at E. G. and G. Mason Research (Worcester, Mass.). The CX-1 human colon carcinoma and the LX-1 human lung carcinoma xenografts were obtained from the National Cancer Institute. The HXGC3 and VRC5 human colon xenografts were obtained from Dr. P. J. Houghton, St. Jude Children's Hospital in Memphis (see Br. J. Cancer, 37, 213 (1978)). First passage tumor was stored in liquid nitrogen using standard techniques. The transplanted tumor was reestablished from the Tumor Bank every six months or as needed. The tumor was maintained by serial passage twice weekly in C3H mice.
(§2) In the procedure the tumor was removed from passage animals and minced into 1- to 3-mm square fragments using sterile techniques. Tumor pieces were checked for sterility using both Antibiotic Medium 1 and Brain Heart Infusion (Difco, Detroit, Mich.). Recipient mice were shaved and tumor pieces were implanted subcutaneously in the auxiliary region by trocar. Drug therapy on the appropriate schedule was initiated on the day after tumor implant for 6C3HED and after a seven (7) day delay for xenografts (or other delay as noted in Table 2). The compound being tested was mixed with 2.5% Emulphor EL620 from GAF Corporation (1:40 dilution in saline). Food and water were provided ad libitium. The drug was administered orally in 0.5 ml of 2.5% Emulphor (unless otherwise indicated). The tumor was measured the day after treatment ended with two dimensional measurements (width and length) of the tumor taken using automated digital calipers interfaced to a microcomputer. Approximate weight for the tumor was calculated using the following formula [Worzalla, J. F., et al., Invest. New Drugs, 8, 241 (1990], (tumor weight in mg)=(width in mm)^2 ×(length in mm)/2.
(§3) At least one control group of an equal number of mice was treated with the same volume of 2.5% Emulphor only. The percent inhibition was determined by subtracting the ratio of the mean tumor size of the test group relative to the control group from one and multiplying the result times 100.
(§4) The results of several experiments in mice bearing a 6C3HED lymphosarcoma (or other tumor where indicated) when the indicated compounds were administered are provided in Table 2. In Table 2, column 1 gives the Example number of the compound used, column 2 lists the dose level in mg/kg, column 3 provides the percent inhibition of tumor growth, column 4 gives the number of mice which died relative to the total number of animals in the group, column 5 gives the method of administration of the compound, and column 6 gives the dosage schedule. The protocol used with other tumors was the same as with the 6C3HED lymphosarcoma.

6C3HED lymphosarcoma = assay: animal or person
HC1 = system: HC1
Experimental: as §1, §2, §3, §4

LX1 = settings: oral, DX 10, from day 7 after implant
Experimental: as §1, §2, §3, §4

CCCCN=S(=O)(NC(=O)Nc1ccc(Cl)cc1)c1ccc(C)cc1 (stereo not drawn) [Example 7, N-[[(4-chlorophenyl)amino]carbonyl]-N'-butyl-4-methylbenzenesulfonimidamide]
% inhibition of tumor growth (VRC5; 50 mg/kg, BIDX 10): 0% | Tox/Tot (mice which died / total) (VRC5; 50 mg/kg, BIDX 10): 0/10 | inhibition in vivo at 18.75 mg/kg (6C3HED lymphosarcoma; Mus musculus, 6C3HED, po, read-out: % inhibition of tumor growth, oral, 18.75 mg/kg, BIDX 10): 21% | inhibition in vivo at 37.5 mg/kg (6C3HED lymphosarcoma; Mus musculus, 6C3HED, po, read-out: % inhibition of tumor growth, oral, 37.5 mg/kg, BIDX 10): 45% | inhibition in vivo at 75 mg/kg (6C3HED lymphosarcoma; Mus musculus, 6C3HED, po, read-out: % inhibition of tumor growth, oral, 75 mg/kg, BIDX 10): 69% | inhibition in vivo at 150 mg/kg (6C3HED lymphosarcoma; Mus musculus, 6C3HED, po, read-out: % inhibition of tumor growth, oral, 150 mg/kg, BIDX 10): 88% | Tox/Tot (mice which died / total) (6C3HED lymphosarcoma; oral, 18.75 mg/kg, BIDX 10): 0/10 | Tox/Tot (mice which died / total) (6C3HED lymphosarcoma; oral, 37.5 mg/kg, BIDX 10): 0/10 | Tox/Tot (mice which died / total) (6C3HED lymphosarcoma; oral, 75 mg/kg, BIDX 10): 0/10 | Tox/Tot (mice which died / total) (6C3HED lymphosarcoma; oral, 150 mg/kg, BIDX 10): 0/10

NS(=O)(=NC(=O)Nc1ccc(Cl)cc1)c1ccc(CO)cc1 (stereo not drawn) [Example 50]
% inhibition of tumor growth (VRC5; 150 mg/kg, DX 10): 27% | Tox/Tot (mice which died / total) (VRC5; 150 mg/kg, DX 10): 0/10 | % inhibition of tumor growth (VRC5; 300 mg/kg, DX 10): 59% | Tox/Tot (mice which died / total) (VRC5; 300 mg/kg, DX 10): 0/10 | % inhibition of tumor growth (HC1; IP 0.6 ml, 5 mg/kg, BIDX 14): 6% | Tox/Tot (mice which died / total) (HC1; IP 0.6 ml, 5 mg/kg, BIDX 14): 0/10 | % inhibition of tumor growth (HC1; IP 0.6 ml, 10 mg/kg, BIDX 14): 31% | Tox/Tot (mice which died / total) (HC1; IP 0.6 ml, 10 mg/kg, BIDX 14): 0/10 | % inhibition of tumor growth (HC1; IP 0.6 ml, 20 mg/kg, BIDX 14): 33% | Tox/Tot (mice which died / total) (HC1; IP 0.6 ml, 20 mg/kg, BIDX 14): 0/10 | % inhibition of tumor growth (HC1; IP 0.6 ml, 40 mg/kg, BIDX 14): 71% | Tox/Tot (mice which died / total) (HC1; IP 0.6 ml, 40 mg/kg, BIDX 14): 1/10 | % inhibition of tumor growth (HC1; oral, 75 mg/kg, BIDX 10): 46% | Tox/Tot (mice which died / total) (HC1; oral, 75 mg/kg, BIDX 10): 0/9 | % inhibition of tumor growth (HC1; oral, 150 mg/kg, BIDX 10): 23% | Tox/Tot (mice which died / total) (HC1; oral, 150 mg/kg, BIDX 10): 2/9 | % inhibition of tumor growth (LX1; 150 mg/kg): 32% | Tox/Tot (mice which died / total) (LX1; 150 mg/kg): 0/10 | % inhibition of tumor growth (LX1; 300 mg/kg): 34% | Tox/Tot (mice which died / total) (LX1; 300 mg/kg): 0/10 | Tox/Tot (mice which died / total) (6C3HED lymphosarcoma; IP, 5 mg/kg, BIDX 8): 0/10 | Tox/Tot (mice which died / total) (6C3HED lymphosarcoma; IP, 10 mg/kg, BIDX 8): 0/10 | Tox/Tot (mice which died / total) (6C3HED lymphosarcoma; IP, 20 mg/kg, BIDX 8): 0/10 | Tox/Tot (mice which died / total) (6C3HED lymphosarcoma; IP, 40 mg/kg, BIDX 8): 1/10 | Tox/Tot (mice which died / total) (6C3HED lymphosarcoma; IP, 75 mg/kg, BIDX 8): 0/10 | Tox/Tot (mice which died / total) (6C3HED lymphosarcoma; IP, 150 mg/kg, BIDX 8): 0/10 | Tox/Tot (mice which died / total) (6C3HED lymphosarcoma; IP, 150 mg/kg, DX 8): 0/10 | Tox/Tot (mice which died / total) (6C3HED lymphosarcoma; IP, 300 mg/kg, BIDX 8): 9/10 | Tox/Tot (mice which died / total) (6C3HED lymphosarcoma; IP, 300 mg/kg, DX 8): 1/10 | inhibition in vivo at 5 mg/kg (6C3HED lymphosarcoma; Mus musculus, 6C3HED, ip, read-out: % inhibition of tumor growth, IP, 5 mg/kg, BIDX 8): 34% | inhibition in vivo at 10 mg/kg (6C3HED lymphosarcoma; Mus musculus, 6C3HED, ip, read-out: % inhibition of tumor growth, IP, 10 mg/kg, BIDX 8): 49% | inhibition in vivo at 20 mg/kg (6C3HED lymphosarcoma; Mus musculus, 6C3HED, ip, read-out: % inhibition of tumor growth, IP, 20 mg/kg, BIDX 8): 72% | inhibition in vivo at 40 mg/kg (6C3HED lymphosarcoma; Mus musculus, 6C3HED, ip, read-out: % inhibition of tumor growth, IP, 40 mg/kg, BIDX 8): 86% | inhibition in vivo at 75 mg/kg (6C3HED lymphosarcoma; Mus musculus, 6C3HED, ip, read-out: % inhibition of tumor growth, IP, 75 mg/kg, BIDX 8): 96% | inhibition in vivo at 150 mg/kg (6C3HED lymphosarcoma; Mus musculus, 6C3HED, ip, read-out: % inhibition of tumor growth, IP, 150 mg/kg, BIDX 8): 99% | inhibition in vivo at 150 mg/kg (6C3HED lymphosarcoma; Mus musculus, 6C3HED, ip, read-out: % inhibition of tumor growth, IP, 150 mg/kg, DX 8): 93% | inhibition in vivo at 300 mg/kg (6C3HED lymphosarcoma; Mus musculus, 6C3HED, ip, read-out: % inhibition of tumor growth, IP, 300 mg/kg, BIDX 8): 100% | inhibition in vivo at 300 mg/kg (6C3HED lymphosarcoma; Mus musculus, 6C3HED, ip, read-out: % inhibition of tumor growth, IP, 300 mg/kg, DX 8): 99% | inhibition in vivo at 75 mg/kg (6C3HED lymphosarcoma; Mus musculus, 6C3HED, po, read-out: % inhibition of tumor growth, oral, 75 mg/kg, BIDX 8): 99% | inhibition in vivo at 150 mg/kg (6C3HED lymphosarcoma; Mus musculus, 6C3HED, po, read-out: % inhibition of tumor growth, oral, 150 mg/kg, BIDX 8): 100% | inhibition in vivo at 300 mg/kg (6C3HED lymphosarcoma; Mus musculus, 6C3HED, po, read-out: % inhibition of tumor growth, oral, 300 mg/kg, BIDX 8): 100% | Tox/Tot (mice which died / total) (6C3HED lymphosarcoma; oral, 75 mg/kg, BIDX 8): 2/10 | Tox/Tot (mice which died / total) (6C3HED lymphosarcoma; oral, 150 mg/kg, BIDX 8): 2/10 | Tox/Tot (mice which died / total) (6C3HED lymphosarcoma; oral, 300 mg/kg, BIDX 8): 9/10
